Results on 3 molecules are retold here after patent US20030130355A1, “Therapeutic agents” (priority 2000, published 2003).

The structures appear in SMILES notation.

The test system of one data set is rats. Conditions: cited from earlier work.
The test system of data set [1] is conscious, telemetered rats. Type of data set: in vivo, rat. From the text:
The methods used were similar to those described in:
Brockway, B P, Mills, P A & Azar, S H (1991) A new method for continuous chronic measurement of blood pressure, heart rate and activity in the rat via radio-telemetry. Clinical and Experimental Hypertension—Theory and Practice A13(5), 885-895 and
Guiol, C, Ledoussal, C & Surgé, J-M (1992) A radiotelemetry system for chronic measurement of blood pressure and heart rate in the unrestrained rat. Validation of method. Journal of Pharmacological and Toxicological Methods 28, 99-105.
In brief, male rats (n=10) were implanted with a telemetry device for the measurement of arterial blood pressure and heart rate. Two weeks following implantation each animal received a single oral dose of vehicle, one dose of sibutramine or a combination of sibutramine and flesinoxan in a cross-over design. Measurements of blood pressure and heart rate were taken from each rat in sequence every three minutes for nine hours following drug administration and averaged into appropriate time-bins. Statistical comparisons were by the least significant difference or multiple t-test.
In FIGS. 1 and 2, shaded circles relate to the administration of vehicle alone p.o., shaded squares relate to the administration of sibutramine at 10 mg/kg p.o. and shaded triangles relate to the administration of sibutramine at 10 mg/kg p.o. together with flesinoxan at 30 mg/kg p.o. Statistical comparisons made by the least significant difference or multiple t-test are shown as *=p<0.05 versus vehicle and t=p<0.05 versus sibutramine.

On to `CCCN(CCC)C1CCc2cccc(O)c2C1` (centres unmarked) [8-OH-DPAT], for which the food intake result in the data set on rats is “increases food intake”.

Turning to `O=C(NCCN1CCN(c2cccc3c2OC[C@H](CO)O3)CC1)c1ccc(F)cc1` [flesinoxan], in data set [1] (flesinoxan 30 mg/kg p.o. co-administered with sibutramine 10 mg/kg p.o., FIG. 1), the “effect on the increase in mean arterial blood pressure induced by sibutramine” value is “completely reversed”. For the same molecule, the “effect on the increase in heart rate produced by sibutramine” value in data set [1] (flesinoxan 30 mg/kg p.o. co-administered with sibutramine 10 mg/kg p.o., FIG. 2) is on record as “prevented the increase in heart rate”.

As for `CC(C)CC(N(C)C)C1(c2ccc(Cl)cc2)CCC1` (centres unmarked) [sibutramine, N-{1-[1-(4-chlorophenyl)cyclobutyl]-3-methylbutyl}-N,N-dimethylamine], the “mean arterial blood pressure” value in data set [1] (sibutramine 10 mg/kg p.o. alone, versus vehicle, conscious telemetered male rats, nine hours, FIG. 1) is given as “significant increase”. In data set [1] (sibutramine 10 mg/kg p.o. alone, conscious telemetered rats, FIG. 2), the heart rate result was “increase in heart rate”.
